Measured values published in paper PMC10779787, “An Efficient Synthesis of 1-(1,3-Dioxoisoindolin-2-yl)-3-aryl Urea Analogs as Anticancer and Antioxidant Agents: An Insight into Experimental and In Silico Studies” (Molecules, 2023).

Target: EGFR (Homo sapiens, UniProt P00533)
Experiment: EGFR kinase assay kit (BPS Bioscience), Kinase-Glo MAX luminescence, poly(Glu:Tyr […]) substrate
Format: biochemical

EGFR, sequence (P00533 25-1210): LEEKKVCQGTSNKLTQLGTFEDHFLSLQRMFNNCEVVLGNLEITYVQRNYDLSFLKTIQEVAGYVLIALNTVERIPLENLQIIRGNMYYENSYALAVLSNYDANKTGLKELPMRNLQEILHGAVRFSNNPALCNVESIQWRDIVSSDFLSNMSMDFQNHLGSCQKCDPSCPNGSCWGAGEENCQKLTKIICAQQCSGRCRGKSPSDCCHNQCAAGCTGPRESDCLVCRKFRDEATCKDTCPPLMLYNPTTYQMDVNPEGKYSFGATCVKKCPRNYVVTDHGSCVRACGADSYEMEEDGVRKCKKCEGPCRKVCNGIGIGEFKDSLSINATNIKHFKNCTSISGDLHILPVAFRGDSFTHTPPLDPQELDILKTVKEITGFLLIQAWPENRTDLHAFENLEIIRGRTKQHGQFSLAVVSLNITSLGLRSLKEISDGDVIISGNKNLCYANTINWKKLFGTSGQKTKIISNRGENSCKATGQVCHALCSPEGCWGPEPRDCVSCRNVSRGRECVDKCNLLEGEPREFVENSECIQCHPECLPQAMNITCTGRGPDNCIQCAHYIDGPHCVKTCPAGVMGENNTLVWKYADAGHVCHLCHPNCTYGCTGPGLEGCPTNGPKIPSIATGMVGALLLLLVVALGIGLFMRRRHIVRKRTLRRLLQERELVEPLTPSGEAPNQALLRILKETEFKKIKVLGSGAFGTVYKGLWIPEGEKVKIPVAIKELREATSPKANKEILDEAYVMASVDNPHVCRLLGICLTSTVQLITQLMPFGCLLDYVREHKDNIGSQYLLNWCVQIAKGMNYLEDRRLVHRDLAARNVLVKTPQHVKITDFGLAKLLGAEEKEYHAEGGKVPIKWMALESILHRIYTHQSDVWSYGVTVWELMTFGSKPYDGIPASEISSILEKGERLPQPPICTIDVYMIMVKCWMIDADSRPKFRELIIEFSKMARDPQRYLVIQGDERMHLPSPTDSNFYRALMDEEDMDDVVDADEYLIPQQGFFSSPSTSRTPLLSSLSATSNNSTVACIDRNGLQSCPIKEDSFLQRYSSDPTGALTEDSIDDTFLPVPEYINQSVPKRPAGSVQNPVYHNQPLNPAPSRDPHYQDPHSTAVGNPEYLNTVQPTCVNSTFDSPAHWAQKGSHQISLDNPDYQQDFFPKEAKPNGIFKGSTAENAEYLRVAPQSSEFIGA

- IC50: 42.9 ± 0.8 nM
Structure (SMILES): O=C(Nc1ccc(Br)cc1)NN1C(=O)c2ccccc2C1=O [7c, 1-(4-Bromophenyl)-3-(1,3-dioxoisoindolin-2-yl)urea]
